Key:
[1] = molecular target: Alcohol dehydrogenase; experiment: Inhibitor IC50 against NADPH dependent oxidoreductase, by his-mBFP fluorescence quantification of NADPH; assay type: biochemical; conditions: compounds added at 0.1 to 10 mM, sigma plot
Procedure: (§1) As an example of typical reactions, first, 0.02 units of glutathione reductase was reacted with 50 mM potassium phosphate buffer (pH 7.5) containing 5 mM of oxidized glutathione (GSSG) and 2 mM NADPH at room temperature, and then fluorescence was measured. In addition, 0.03 units of isocitrate dehydrogenase was reacted with 50 mM phosphate buffer (pH 7.2) containing 5 mM isocitrate, 2 mM MgCl2, and 2 mM NADP+ at room temperature, and then fluorescence was measured. In addition, 0.02 units of glucose-6-phosphate dehydrogenase was reacted with 50 mM Tris-HCL buffer (pH 7.5) containing 5 mM glucose-6-phosphate, 50 mM MgCl2, and 2 mM NADP+ at room temperature, and then fluorescence was measured. Further, 0.04 units of malate dehydrogenase was reacted with 50 mM Tris-HCL buffer (pH 7.5) containing 5 mM L-malate, 50 mM MgCl2, and 2 mM NADP+ at room temperature, and then fluorescence was measured. In addition, 0.02 units of NADPH oxidase was reacted with 50 mM phosphate buffered saline (PBS) containing 50 mM MgCl2 and 2 mM NADP+ at room temperature, and then fluorescence was measured. At the time of measuring the fluorescence, the reaction solution was diluted in consideration of mole ratio with his-mBFP.
(§2) In addition, the present invention may selectively select an activity inhibitor by restricting the library in the above-mentioned process with a clone having an oxidation/reduction enzyme family, adding a specific compound as well as a substrate in a process of measuring the activities of these enzymes, calculating a changed amount of NADP(H) to compare the calculated value with that of a control group (only substrate was add). These processes mean that after clones having related enzyme activities are cultured and a substrate and NADP(H) are added thereto, a changed amount of NADPH is quantified while inducing a reaction in an environment in which various synthetic materials are present.
(§3) In more detail, compounds having a possibility as the activity inhibitor were added to reaction solution of NADPH dependent oxidoreductase as in Example 7 at each concentration (0.1 to 10 mM). While the reaction was carried out, a produced amount of NADPH according to addition of each compound was quantified, and an inhibition degree of specific enzyme activity was confirmed by comparing the produced amount of NADPH in the case of adding the compound (test group) with that of in the case of not adding (control group).
(§4) After rates of NADPH production (reduction) reaction according to the concentration changes of primary selected compounds were measured, IC50 of each compound was calculated using a sigma plot program.

[2] = molecular target: Isocitrate dehydrogenase; experiment: as above; assay type: biochemical; conditions: compounds added at 0.1 to 10 mM, sigma plot
Procedure: as §1, §2, §3, §4

[3] = molecular target: T1, Glucose-6-phosphate dehydrogenase (UniProt P11412); experiment: as above; assay type: biochemical; conditions: compounds added at 0.1 to 10 mM, sigma plot
T1 sequence (P11412 1-505): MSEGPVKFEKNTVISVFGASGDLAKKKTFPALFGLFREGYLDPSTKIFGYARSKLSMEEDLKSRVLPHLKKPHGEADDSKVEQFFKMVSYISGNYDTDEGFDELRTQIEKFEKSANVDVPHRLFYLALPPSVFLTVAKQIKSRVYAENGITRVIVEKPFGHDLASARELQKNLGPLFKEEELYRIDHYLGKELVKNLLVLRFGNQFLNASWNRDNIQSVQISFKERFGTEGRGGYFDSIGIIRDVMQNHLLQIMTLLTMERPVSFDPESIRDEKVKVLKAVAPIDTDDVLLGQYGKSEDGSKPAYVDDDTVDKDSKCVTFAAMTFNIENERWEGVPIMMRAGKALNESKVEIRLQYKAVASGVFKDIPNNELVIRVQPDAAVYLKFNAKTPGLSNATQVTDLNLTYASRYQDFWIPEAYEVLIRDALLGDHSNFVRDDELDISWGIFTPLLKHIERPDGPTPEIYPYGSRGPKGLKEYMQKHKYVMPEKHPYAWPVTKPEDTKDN
Procedure: as §1, §2, §3, §4

[4] = Retention of fluorescence of his-mBFP according to storage method; assay type: physicochemical
Procedure: In order to search a long-term storage method for his-mBFP requiring retention of the structure that is an important factor in fluorescence activity, suitable protein storage methods were observed. As storage conditions, degrees of reduction of fluorescence according to time were confirmed at different temperatures (4° C., −20° C., −80° C.) and different concentrations of additives for storage (5% trehalose, 25% glycerol, 50% glycerol, based on final concentration).
Among his-mBFP samples stored under each of the conditions, in the case of frozen samples, the sample was sufficiently hydrated in a cool buffer for 5 to 45 minutes in consideration of reconstruction of the structure, time required for restoration, or the like, and then was used in the experiment.

COc1ccc(/C=C/c2cc(O)cc(O[C@@H]3O[C@H](CO)[C@@H](O)[C@H](O)[C@H]3O)c2)cc1O [Rhaponticin] showed an IC50 [1] of 61.2 ± 4.1 µM.

In the case of CC(O)(C(=O)O)C(CC(=O)O)C(=O)O (stereo not drawn) [methylisocitric acid], the IC50 [2] is reported as 102 ± 7.4 µM.

For O=C(O)C(=O)C(C(=O)O)C(O)C(=O)O (stereo not drawn) [oxalomalic acid], the IC50 [2] was 63.3 ± 5.2 µM.

O=C(O[C@@H]1Cc2c(O)cc(O)cc2O[C@@H]1c1ccc(O)c(O)c1)c1cc(O)c(O)c(O)c1 [epicatechin gallate] gave an IC50 [3] of 235 ± 37.8 µM.

For OC[C@H]1O[C@@H](Oc2cc(O)cc(/C=C/c3ccc(O[C@@H]4O[C@H](CO)[C@@H](O)[C@H](O)[C@H]4O)cc3O)c2)[C@H](O)[C@@H](O)[C@@H]1O [Mulberroside A], the IC50 [1] was 48.9 ± 4.9 µM.

In the case of O=C(O[C@@H]1Cc2c(O)cc(O)cc2O[C@H]1c1cc(O)c(O)c(O)c1)c1cc(O)c(O)c(O)c1 [gallocatechin gallate], the IC50 [3] is reported as 225 ± 28.6 µM.

Molecule Cc1cn[nH]c1 [Formepizole] has an IC50 [1] of 40.6 ± 5.8 µM.

B1: his-mBFP: metagenome-derived blue fluorescent protein with histidine tag, amino acid sequence SEQ ID NO: 3 (protein)
chain: MRGSHHHHHHGSACQNLNGKVAFVTGGSRGIGAAIVRRLAADGADIAFTYVSASSKNVATALVQELEAKGRRARAIQADSADPAQVRQAVEQAIVQLGPVDVLVNNAGIFLAGPLGEVTLDDYERTMNINVRAPFVAIQAAQASMPDGGRIINIGSCLAERAGRAGVTLYAASKSALLGMTRGLARDLGARGITANVVHPGPIDTDMNPADGERSGELVAVLSLPHYGEVRDIAGMVAFLAGPDGRYVTGASLAVDGGFAA
modifications: synthetic construct of His-tagged metagenome-derived blue fluorescent protein (mBFP)
Molecule B1 has a fluorescence maintained ([4]; after 6 months, additive (25% to 50%) added) of at least 90%, a fluorescence maintained ([4]; both cool and frozen conditions after 6 months) of at least 80% and a fluorescence maintained ([4]; cold room at 4° C. for 2 months, solution state, no additive for storage) of at least 80%. It also gave a fluorescence maintained ([4]; freezer at −20 to −80° C. for 2 months with an additive for storage) of at least 95% and a fluorescence intensity maintained ([4]; glycerol final concentration 50%, freezer at −80° C.) of at least 90%.

Source: US8889345B2, “Detection methods of NADP(H) using mBFP” (priority 2012, dated 2014)
